Consider 1 cell line from the supplement of paper PMC10307832.

Holding throughout (assay): relative viability (nuclei count vs DMSO), 5 days (fraction); higher = more cells survive
Compound in assay [1]: C1CC2=C(C1)C=C(C=C2)OC3=NC(=C4C(=N3)N(C=N4)CC5=CC=C(C=C5)C6=CC=CC=C6)N[C@@H](CC7=CC=CC=C7)CO [QS11] + CC(=O)c1c(C)c2cnc(Nc3ccc(N4CCNCC4)cn3)nc2n(C2CCCC2)c1=O [Palbociclib] (partner 0.5 µM)
The method in brief: (§1)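 For relative viability, nuclei counts in treated wells were divided by those in vehicle wells. Lung cancer cell lines had been pin-tool dosed in 1536-well plates the day after seeding and cultured for 5 days, then fixed and stained in one step (final 0.05% Triton X-100, 1% formaldehyde, 1 ug/ml Hoechst) and imaged at 4×. Doses were one drug alone or a fixed anchor-drug dose plus five library-drug doses (not always all listed) in √10 steps, and values are duplicate-plate medians.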

Compound in assay [2]: CC1=C(C=C(C=C1)NC(=O)C2=CC(=CC=C2)C(C)(C)C#N)NC3=CC4=C(C=C3)N=CN(C4=O)C [AZ628] + NC(=O)Nc1cc(-c2cccc(F)c2)sc1C(=O)N[C@H]1CCCNC1 [AZD7762] (partner 0.2 µM)
The method, boiled down:
as §1

Compound in assay [3]: C[As](C)SC[C@H](NC(=O)CC[C@H](N)C(=O)O)C(=O)NCC(=O)O [Darinaparsin] + COc1cccc2cc(-c3nc([C@H]4CC[C@H](C(=O)O)CC4)n4ncnc(N)c34)[nH]c12 [OSI-027] (partner 0.5 µM)
The method in brief: as §1

Compound in assay [4]: C[As](C)SC[C@H](NC(=O)CC[C@H](N)C(=O)O)C(=O)NCC(=O)O [Darinaparsin] + NC(=O)Nc1cc(-c2cccc(F)c2)sc1C(=O)N[C@H]1CCCNC1 [AZD7762] (partner 0.2 µM)
The method, boiled down: as §1

Compound in assay [5]: C[As](C)SC[C@H](NC(=O)CC[C@H](N)C(=O)O)C(=O)NCC(=O)O [Darinaparsin] + Nc1ncn([C@H]2C[C@H](O)[C@@H](CO)O2)c(=O)n1 [Decitabine] (partner 2 µM)
The method, boiled down: as §1

Take LCLC-97TM1: the relative viability came to 0.204 in assay [1] (first compound 0.253 µM); 0.213 in assay [1] (first compound 2.53 µM); 0.277 in assay [1] (first compound 8 µM); 0.307 in assay [2] (first compound 0.08 µM); 0.331 in assay [2] (first compound 0.253 µM); 0.243 in assay [2] (first compound 0.8 µM). The relative viability is 0.201 in assay [2] (first compound 2.53 µM); 0.108 in assay [2] (first compound 8 µM); 0.654 in assay [3] (first compound 0.08 µM); 0.468 in assay [3] (first compound 0.8 µM); 0.514 in assay [3] (first compound 2.53 µM); 0.615 in assay [3] (first compound 8 µM). Also, the relative viability in assay [4] (first compound 0.08 µM) is 0.128; in assay [4] (first compound 0.8 µM), 0.247; in assay [4] (first compound 2.53 µM), 0.314; in assay [4] (first compound 8 µM), 0.254; in assay [5] (first compound 0.08 µM) it was 0.246; in assay [5] (first compound 0.8 µM), 0.252. The results for the relative viability in assay [5] (first compound 2.53 µM) and in assay [5] (first compound 8 µM) were 0.211 and 0.258, respectively.
